What was measured:
[1] = tested on: P-type E. coli; assay: Latex bead agglutination test (beads coated with synthetic P-type receptor analog Galα1→4Galβ); type: cell-based; conditions: for Inhibition of agglutination, P-Receptor: P-type E. coli, latex beads coated with P-type receptor analog
Experimental: (§1) Sixty E. coli strains were isolated from the urine of human and animal (dog and cat) patients suffering from urinary tract infections. After determining the fimbrial type of each strain, 5 strains specific for P-type fimbriae, and 5 strains specific for type 1 fimbriae were selected for use in bioactivity testing. Bacterial strains were subcultured in tryptose broth at 37° C. for 16 h. P-type strains were transferred to colonization factor agar (CFA) plates and grown overnight at 37° C. to enhance production of P-type fimbriae. Strains were harvested by centrifugation, washed once and suspended in phosphate-buffered saline solution (PBS) at pH 7.0 at a concentration of 5×10^8 bacteria/mL. […] Therefore, mixtures of P-type strains were used to test for P-type bioactivity, and mixtures of type 1 strains were used to test for type 1 bioactivity. Strains were kept frozen at −70° C. in tryptose broth (30% glycerol) for long-term storage.
The fractions were also tested in the P-type receptor bioassay of de Man et al., 1987, J. Clin. Microbiol. 25(2):401-406. Dried Fractions 1-8 were dissolved in PBS, neutralized, and mixed with P-type bacterial suspensions (30 μl fraction to 10 μl of bacterial suspension) on a polystyrene 24-well plate and incubated for 10 min on a rotary shaker. Latex beads coated with a synthetic P-type receptor analog (Galα1→4Galβ) (BACH test, Kabi Vitrum, Stockholm, Sweden) suspended in water at a concentration of 5×10^9 beads/mL were added (10 μl) to each well and incubation continued for 20 min on the rotary shaker. […] (4) uncoated beads and test fractions, and (5) bacteria, coated beads and epicatechin trimer. The control to show agglutination consisted of bacteria and coated beads.

[2] = tested on: P-type E. coli; assay: Hemagglutination assay: inhibition of P-type E. coli-induced agglutination of A+ human red blood cells (HRBC); type: cell-based; conditions: for Inhibition of agglutination, HRBC: P-type E. coli, A+ human red blood cells, neutral pH
Experimental: as §1

[3] = tested on: type 1-fimbriated E coli; assay: Yeast (Saccharomyces cerevisiae) agglutination assay; type: cell-based; conditions: for Inhibition of agglutination, Yeast Cells: type 1 E. coli, S. cerevisiae
Experimental: as §1
The fractions were also tested in the bioassay of Eschdat et al., 1978, Biochem. Biophys. Res. Commmun. 85:1551-1559, using yeast cells. Yeast cultures of Saccharomyces cerevisiae were grown in Sabouraud dextrose broth and incubated for 24 hr at 38° C. Yeast cells were transferred to Sabouraud dextrose agar plates and grown under the same conditions. Cells were harvested, washed and suspended in PBS at a concentration of 4×10^8 cells/mL. Ten μl of type 1-fimbriated E coli were mixed with neutralized test fractions (30 μl) in a 24-well polystyrene plate and incubated for 10 min on a rotary shaker. Yeast cell suspension (10 μl) was added to each well and incubated for 5 min. […] The control to show agglutination consisted of bacteria and yeast. Tie results are shown in Table 4 under the column “Yeast Cells” using the same scoring system as described above.

[4] = tested on: type 1 E. coli; assay: Hemagglutination assay with guinea pig red blood cells (GPRBC); type: cell-based
Experimental: as §1
The inhibition of adherence of type 1 E. coli by the various fractions was tested according to hemagglutination assay for P-type bacteria, except guinea pig red blood cells (GPRBC) were used in place of HRBC. The results are shown in Table 4 under the column GPRBC using the same scoring system as described above.

[5] = tested on: type 1 E. coli; conditions: cited from earlier work

Molecule | Inhibition of agglutination, P-Receptor [1] | Inhibition of agglutination, HRBC [2] | Agglutination in control well ([3]; bacteria, yeast and 1% D-mannose) | Inhibition of agglutination, Yeast Cells [3] | Inhibition of agglutination, GPRBC [4] | Inhibition of type 1 E. coli to uroepithelial cells [5] | Agglutination in control well ([1]; bacteria, coated beads and standard) | Agglutination in control well ([2]; bacteria, HRBC and standard)
O=C[C@@H](O)[C@@H](O)[C@H](O)[C@H](O)CO [1% D-Mannose, D-Mannose] | − | − | no agglutination or complete inhibition of agglutination | + | + |  |  | 
O=C(CO)[C@@H](O)[C@H](O)[C@H](O)CO [fructose] |  |  |  |  |  | responsible for the inhibition |  | 
Epicatechin Trimer | + | + |  | − | − |  | no agglutination or complete inhibition of agglutination | no agglutination or complete inhibition of agglutination

Reference: patent US6720353B2, “Plant proanthocyanidin extract effective at inhibiting adherence of bacteria with p-type fimbriae to surfaces” (priority 1997, dated 2004)
